Experimental data taken from patent US12054447B2, “PCNA inhibitors” (City of Hope, priority 2015, dated 2024).

Assays:
[1] = system: brain tumors; assay: Brain tumors in mice, luciferase imaging; format: in vivo; details: given once weekly to tumor bearing mice
Description: (§1) FIG. 12. Effects of AOH1160 on brain tumors in mice. The compound was given to tumor bearing mice once weekly. The brain cancer cells used in this study contains a luciferase. For measuring tumor growth, luciferin was injected into each mouse. The relative growth of the tumors in live mice was determined by measuring luminescent signals by a CCD camera.
as §1, with “The” for “FIG. 12. Effects of AOH1160 on brain tumors in mice. The”, “compound (AOH1160)” for “compound”, “give into” for “given to”

[2] = system: small cell lung cancer cells; assay: Killing of small cell lung cancer cells; format: cell-based; details: FIG. 14B
[3] = system: HR-mediated DSB repair in DR-GFP cells; assay: DSB repair assay, DR-GFP reporter; format: cell-based; details: I-SceI-induced DSB, GFP-positive cells by flow cytometry
Description: The human NB cell lines, SK-N-DZ, SK-N-BE(2)c, SK-N-AS, and LAN-5 obtained from the American Type Culture Collection (Rockville, MD), were cultured in DMEM with 10% fetal bovine serum (FBS), 100 units/ml penicillin, and 100 μg/ml streptomycin in the presence of 5% CO2 at 37° C. Human PBMCs from a healthy donor were purchased from Sanguine BioSciences (Valencia, CA) and grown in RPMI1640 with 10% FBS, 100 units/ml penicillin, 100 μg/ml streptomycin, and 10 ng/ml IL-2 in the presence of 5% CO2 at 37° C. Human embryonic progenitor cell line 7SM0032 was acquired from Millipore (Billerica, MA) and grown in the hEPM-1 Media Kit purchased from the same company. The plasmid pCBASce expresses the rare cutting I-SceI meganuclease. The U20S-derived cell lines, DR-GFP and EJ5-GFP, each contain a stably transfected reporter gene for DSB repair mediated by HR and end joining (EJ), respectively. These cell lines were cultured in DMEM medium with 10% FBS at 37° C. in the presence of 5% CO2.
DR-GFP and EJ5-GFP cell lines were seeded at 2.5×10^4 cells/cm^2 in a 12-well plate. […] The HR and EJ-mediated DSB repair, indicated by the restoration of a functional GFP gene in the respective cell lines, were quantified by measuring the relative abundance of GFP-positive cells by flow cytometry 3 days after transfection.

[4] = system: NB cell lines; assay: Cell viability assay on NB cell lines; format: cell-based, human; details: for concentrations that selectively kill neuroblastoma cells: FIG. 14A
Description: (§2) To measure the effect of the compounds on cell growth, cells were seeded at 3×10^4/ml into a 96-well plate. Once attached, cells were treated with various concentrations of AOH1160 for 72 h. Cell growth was measured by the CellTitor-Glo assay (Promega, Madison, WI) according to the manufacturer's instructions. To measure apoptosis, cells were seeded at 1×10^5/ml onto a chamber slide. Once attached, cells were treated with the 500 nM AOH1160 for 24 h. Cells were fixed and analyzed by a TUNEL assay using the TMR red in situ cell death detection kit (Roche Diagnostics, Indianapolis, IN).
To identify small molecule compounds that target the PCNA and FEN1 interface, we started with known crystal structures of the PCNA/FEN1 complex that are available from the RCSB protein database. To improve the likelihood of identifying novel small molecules that specifically target caPCNA, we focused our virtual screen on the binding pocket in PCNA delineated by residues L126 and Y133 and screened databases consisting of more than 6.8 million chemical structures available at the AMRI. A set of 57 compounds identified by the virtual screen was acquired and further tested in a cell viability assay. A compound (AOH39) was selected for further development due to its anti-cancer activity and selectivity.

[5] = system: CAKI-1; assay: NCI-60 panel test; format: cell-based; details: Homo sapiens; CAKI-1, NCI-60 5-dose study
Description: FIG. 7. NCI-60 panel test. The effect of AOH1160 on growth of the NCI-60 panel, which consists of 60 cancer cell lines representing 9 major cancer types, was tested in a 5-dose study. Shown are the Log IC50 values determined for each cell line. […] This study was performed by the National Institute of Cancer.
As observed in FIG. 7, the effect of AOH1160 on growth of the NCI-60 panel, which consists of 60 cancer cell lines representing 9 major cancer types, was tested in a 5-dose study. Shown are the Log IC50 values determined for each cell line.

[6] = system: 7SM0032; assay: Cell cycle analysis (PI, flow cytometry); format: cell-based, human; details: for cell cycle effect on normal cells: 7SM0032
Description: Cells were seeded at 1×10^5/ml in a 6-well plate. Once attached overnight, cells were treated with or without AOH1160 for 6 or 24 h. After being fixed in 60% ethanol and stained with propidium iodide (PI), cells were analyzed by flow cytometry to determine the cellular PI fluorescence intensity. The flow cytometry data were analyzed by the FlowJo program to model various cell populations.

[7] = system: MDA-MB-436 xenograft tumor; assay: Xenograft of a triple-negative breast cancer cell line in Es1e/SCID mice; format: in vivo; details: 40 mg/kg once daily
Description: (§3) FIGS. 10A-10B. Inhibition of the growth xenograft tumor derived from a triple-negative breast cancer cell line (MDA-MB-436). Mice bearing xenograft tumors were given vehicle only or 40 mg/kg of AOH1160 through the study. Shown are tumor volumes (FIG. 10A) and mouse body weights (FIG. 10B) in the course of the study. The Es1e/SCID mice used in this study were treated by vehicle only (diamond) or by 40 mg/kg AOH1160 (square) once daily.
as §3, with “Inhibition” for “FIGS. 10A-10B. Inhibition”

[8] = system: non-malignant cells; assay: Toxicity to non-malignant cells; format: cell-based
Description: as §2
To improve the anti-tumor potency of the compound while preserving its favorable selectivity, a series of compounds were synthesized and tested. […] The combined improvements in potency and selectivity lead to a significant improvement in the therapeutic window (FIG. 1). AOH1160 was tested in a broad range of non-malignant cells, including human primary mammary epithelial and small airway epithelial cells, and no significant toxicity was found in these cells up to a concentration of 10 μM.

Row | SMILES | brain tumor growth (luminescent signals) [1] | concentrations that selectively kill small cell lung cancer cells [2] | HR-mediated DSB repair [3] | concentrations that selectively kill neuroblastoma cells [4] | IC50 ([4]; Homo sapiens, multiple NB cell lines, read-out: IC50 range over NB cell lines) | increase in compound potency over AOH39 in cell viability assays ([4]; NB cells) | GI50 [5] | cell cycle effect on normal cells [6] | cell cycle effect ([6]; 7SM0032 cells, 500 nM) | weight loss [7] | tumor growth (tumor volumes) ([7]; vs vehicle) | toxicity to non-malignant cells compared with AOH39 ([8]; PBMC and 7SM0032 cells) | concentration causing significant toxicity (none found up to) ([8]; broad range of non-malignant cells incl. human primary mammary epithelial and small airway epithelial cells) | toxicity to non-malignant cells ([8]; neural crest stem cells (7SM0032), hSAEC, PBMCs)
1 | O=C(CNC(=O)c1cccc2ccccc12)Nc1ccccc1Oc1ccccc1 [AOH1160] | inhibited brain tumor growth | below micromolar concentrations | blocks DNA repair in DR-GFP | below micromolar concentrations | 180 to 220 nM | 6-7 fold | 355 nM | exerted little effect on normal cells | doesn't significantly change the cell cycle profiles | caused no significant weight loss | inhibited tumor growth | less toxic to non-malignant PBMC and 7SM0032 cells than AOH39 | > 10 µM | –
2 | COc1cccc(Oc2ccccc2NC(=O)CNC(=O)c2cccc3ccccc23)c1 [PCNA7/ AOH1996] | – | below micromolar concentrations | – | below micromolar concentrations | – | – | 912 nM | exerted little effect on normal cells | – | – | – | – | – | minimal toxicity to non-malignant cells
